Reference: ChEMBL document CHEMBL5236574, “Identification of a new and diverse set of Mycobacterium tuberculosis uracil-DNA glycosylase (MtUng) inhibitors using structure-based virtual screening: Experimental validation and molecular dynamics studies” (Bioorg Med Chem Lett, 2022)
pIC50: −log10 of the molar value.

Target: not listed separately
Test: Inhibition of Mycobacterium tuberculosis uracil-DNA glycosylase by fluorescence based assay

SMILES	pIC50
Cc1ccc(-c2csc3c(=O)n(CC#N)cnc23)cc1	2.10
CC(C)(Cc1cccc(Cl)c1)C(=O)NCCc1n[nH]c(=O)[nH]1	2.39
COc1ccc(C(=O)Nc2c[nH]c(=O)[nH]c2=O)cc1[N+](=O)[O-]	1.82
O=C(Nc1c[nH]c(=O)[nH]c1=O)c1cccc(N2C(=O)CCC2=O)c1	2.67
CC(C)(C)[C@H](COc1ccccc1F)NC(=O)c1nc(=O)[nH][nH]1	1.95
O=C(NCc1nc2ccc(Cl)cc2[nH]1)c1c[nH]c(=O)[nH]c1=O	2.19
Cc1[nH]c(=O)[nH]c(=O)c1CC(=O)N(Cc1ccc2c(c1)OCO2)Cc1ccccc1F	3.85
O=c1cc(Nc2ccc(N3CCCCC3)cc2)[nH]c(=O)[nH]1	3.10
CC(=O)N(CC(O)CO)c1c(I)c(C(=O)NCC(O)CO)c(I)c(C(=O)NCC(O)CO)c1I (stereo not given) [IOHEXOL]	3.22
CCC(C)(C)C(=O)O[C@H]1C[C@@H](C)C=C2C=C[C@H](C)[C@H](CC[C@@H]3C[C@@H](O)CC(=O)O3)[C@H]21 [SIMVASTATIN]	2.98
O=C1CN(/N=C/c2ccc([N+](=O)[O-])o2)C(=O)N1 [NITROFURANTOIN]	3.01
CC(C)c1ccc(OCC(=O)Nc2c[nH]c(=O)[nH]c2=O)cc1	2.12
Cc1ccc(CCOc2ccc(C[C@@H]3SC(=O)NC3=O)cc2)nc1	2.05

Tested on: not listed separately
Test: Inhibition of Mycobacterium tuberculosis uracil-DNA glycosylase expressed in Escherichia coli BL21 (DE3) rosetta cells incubated for 10 sec under shaking condition and measured every 2 mins for 40 mins by fluorescence based assay

SMILES	pIC50
O=c1cc[nH]c(=O)[nH]1 [URACIL]	2.69

Tested on: Mycobacterium tuberculosis
Test: Potency index, ratio of uracil IC50 to test compound IC50 for inhibition of Mycobacterium tuberculosis uracil-DNA glycosylase

SMILES	Ratio IC50
Cc1[nH]c(=O)[nH]c(=O)c1CC(=O)N(Cc1ccc2c(c1)OCO2)Cc1ccccc1F	15
